Laboratory results: EP0046707B1, “Derivatives of 4-aminobutyric acid and the medicines especially active on the central nervous system containing them” (priority 1980, dated 1982)
Read-outs that look alike come from different tables or passages of the source.

Experiments:
souris [1] = experiment: Actography (locomotor activity, two perpendicular light beams); type: in vivo; conditions: mouse, 500 mg/kg oral
Experimental: La mesure de l'actographie est effectuée chez la souris 45 min. après l'administration du produit. On opère sur des lots de 12 animaux, chacun d'eux étant isolé pendant 10 min. avant la mesure. Le comptage des scores est effectué par coupure de deux faisceaux lumineux perpendiculaires.
Dans le tableau IV ci-après sont rassemblés les résultats obtenus avec divers produits de l'invention administrés à la dose de 500 mg/kg par voie orale. Les résultats sont exprimés en pourcentage de variation des scores obtenus par rapport à des animaux témoins non traités.
On peut constater que les produits se répartissent en deux groupes : • ceux provoquant de l'hypomotilité tels que 40217, 40039, 40271, 40272, 40319; dans le cas où les animaux traités présentent une perte du réflexe de retournement, ce qui traduit l'effet de narcose propre du produit, on a noté PRR; • ceux provoquant de l'hypermotilité, tels que 40142, 40398, 40397, 40404, 40253, 40355, 40209; pour préciser les résultats obtenus, l'étude pour deux produits a été reprise en effet-dose suivant le même protocole. • Les résultats obtenus figurent dans le tableau V ci-après.

[2] = tested on: GABA (acide amino-4 butyrique); experiment: Effect on whole-brain GABA level; type: in vivo, souris
Experimental: Le 40039 a été administré 30 min avant le sacrifice chez la souris. Le taux de GABA a été évalué sur le cerveau entier (lots de 6 animaux) (voir tableau IX ci-après).

souris [3] = experiment: Potentiation of pentobarbital narcosis (loss of righting reflex); type: in vivo; conditions: po; mouse, p. os 1 h before pentobarbital 20 mg/kg i.p.; unit not given for DE 50; read-out: dose (p. os) provoquant 50 % d'induction de narcose (DE 50)
Experimental: Les produits à étudier ont été administrés per os chez la souris à la dose de 500 mg/kg, 1 h avant le pentobarbital injecté par voie intrapéritonéale à raison de 20 mg/kg.
On détermine le pourcentage des animaux ayant perdu le réflexe de retournement. Les résultats sont exprimés en pourcentage ou, dans quelques cas, en dose efficace 50 (DE 50) ou dose provoquant la narcose chez 50 % des animaux traités.
Les résultats figurent dans le tableau VI ci-après.

souris [4] = experiment: Anticonvulsant effect against electroshock seizures; type: in vivo; conditions: 1 h; mouse, electroshock 12.5 V for 0.5 s, 60 min after oral dosing; read-out: Dose efficace médiane de protection des crises toniques (DE 50) Electrochoc
Experimental: (§1) L'effet anticonvulsivant a été déterminé vis-à-vis des crises convulsives provoquées par l'électrochoc ou par la bicuculline.
L'électrochoc (12,5 V pendant 0,5 s) est effectué chez la souris 60 min après l'administration du produit par voie orale.
(§2) En opérant sur divers lots d'animaux avec des doses différentes du produit à étudier, on peut déterminer la dose efficace médiane (DE 50).
(§3) Les résultats sont rassemblés dans le tableau VIII ci-après et montrent les propriétés anticonvulsivan- tes nettes des produits étudiés.

rats = experiment: Electroencephalographic study (sleep/wake analysis per 24 h); type: in vivo; conditions: rat; for EV / SL / SP / ST: per 24 h
Experimental: Pour mieux comprendre l'activité hypnotique des produits selon l'invention, une étude électroencéphalographique a été effectuée sur l'un deux, à savoir CM 40039.
[…] Après une période d'habituation de 10 jours (période éclairée de 8 h à 20 h et période obscure de 20 h à 8 h), les animaux sont enregistrés pendant 5 jours avec le solvant (gomme arabique à 10 %), puis enregistrés pendant 4 jours pendant lesquels ils reçoivent le produit à 9 h chaque matin. Après cette administration chronique, les animaux sont enregistrés les 5 jours suivants (période de contrôle).
Les animaux sont enregistrés 24 h sur 24. L'étude statistique porte sur des tranches de 24 h. On fait une analyse globale sur les trois rats en cumulant les 15 journées témoins, les 12 journées de traitement, les 15 journées de contrôle. Dans chaque tranche horaire de 24 h, on évalue le temps d'éveil (EV), de sommeil lent (SL), de sommeil paradoxal (SP), de sommeil total (ST), ainsi que le rapport (en %) sommeil paradoxal/sommeil total (SP/ST) (voir tableau VII ci-après).

souris [5] = experiment: Anticonvulsant effect against bicuculline-induced tonic seizures; type: in vivo; conditions: 1 h; mouse, bicuculline 1 mg/kg i.v. 60 min after oral dosing; read-out: Dose efficace médiane de protection des crises toniques (DE 50) Bicuculline
Experimental: as §1
La bicuculline est administrée à la souris par voie intraveineuse à raison de 1 mg/kg, 60 min après le produit à étudier donné per os. On note l'effet protecteur obtenu vis-à-vis des crises toniques.
as §2, §3

[6] = Acute toxicity (mortality over 24 h); conditions: in vivo, po, mouse, observed 24 h
Experimental: Les produits à étudier sont administrés par voie orale aux doses de 500 et 1 000 mg/kg à des lots de souris. On observe les souris pendant 24 h et note la mortalité.
Les résultats exprimés en pourcentage de mortalité figurent dans le tableau XI ci-après.

[7] = tested on: acide homovanillique (HVA); experiment: Effect on central dopaminergic activity (homovanillic acid accumulation in whole brain); type: in vivo, souris; conditions: mouse whole brain, 500 mg/kg p.os
Experimental: L'effet des produits sur l'activité dopaminergique centrale a été étudié par la mesure de l'accumulation de l'acide homovanillique sur une période de 24 h après l'administration des produits chez la souris.
Le taux d'acide homovanillique (HVA) est évalué dans le cerveau entier, les animaux reçoivent une injection de probenecid (200 mg/kg i.p.) 1 h 30 min avant le sacrifice (lot de 10 animaux).

[8] = post-treatment 'Contrôle' period

Compound: CCCCN(CCCC)C(=O)CCCNC(=O)CCC [40 039, Butyl-10 dioxo-4,9 diaza-5,10 tétradécane]
- Mesure de l'actographie (p. cent scores/témoins) (souris [1]; 45 min after dosing, change of scores vs untreated controls, PRR = loss of righting reflex): PRR
- hypomotilité / hypermotilité (souris [1]; grouping in words): hypomotilité
- Taux de GABA en µg/g cerveau ([2]; mouse whole brain, 500 mg/kg p. os, 30 min before sacrifice): 321 ± 12 µg/g cerveau
- Taux de GABA p.cent/témoins ([2]; mouse whole brain, 500 mg/kg p. os, change vs controls): 14,6 p.cent
- taux de GABA dans le cerveau total ([2]; mouse, result in words): rapide augmentation
- ED50 (souris [3]): 200 mg/kg
- ED50 (souris [4]): 250 mg/kg
- EV (rats; 'Contrôle' = 5 days after end of chronic treatment): 40,3 ± 3,6
- SP/ST (rats; [8]): 13,5 ± 1,8%
- SL (rats; [8]): 51 ± 3
- SP (rats; [8]): 8,6 ± 1,7
- ST (rats; [8]): 59,6 ± 3,9
- EV (rats; treatment period (12 days pooled, 3 rats), 325 mg/kg as in table head, wake time): 40,6 ± 3
- SP (rats; treatment period, paradoxical sleep): 8,1 ± 1,4
- SL (rats; treatment period, slow-wave sleep): 51,5 ± 2
- ST (rats; treatment period, total sleep): 59,5 ± 2,6
- SP/ST (rats; treatment period, ratio paradoxical/total sleep): 13,2 ± 1,9%
- ED50 (souris [5]): 300 mg/kg
- mortality at 24 h ([6]; 500 mg/kg p. os, read-out: p. cent de mortalité à 500 mg/kg p. os): 0%
- mortality at 24 h ([6]; 1000 mg/kg p. os, read-out: p. cent de mortalité à 1000 mg/kg p. os): 100%
- Taux de HVA en ([7]; 2 h): 798 ± 34 ng/g
- Taux de HVA en ([7]; 4 h): 894 ± 37 ng/g
- Taux de HVA en ([7]; 6 h): 659 ± 29 ng/g
- Taux de HVA (variation vs 0) ([7]; 6 h, change vs time 0): 0%
- Taux de HVA en ([7]; 24 h): 441 ± 19 ng/g
- Taux de HVA en ([7]; time 0 (baseline)): 658 ± 40 ng/g
